Data on 10 compounds can be found in PubChem BioAssay (NCI).

Test systems include IGROV1 ovarian; MALME-3M melanoma; NCI-H522 lung; PC-3 prostate; SF-268 CNS; SF-295 CNS; SK-OV-3 ovarian; SN12C renal; SW-620 colon.
What all share (assay): DTP human tumour cell line panel, 48 h

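Following 48 hours of exposure in 96-well plates, responses at five concentrations were used to interpolate endpoints linearly. GI50 marks 50% less growth. TGI: concentration producing complete growth inhibition.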

By GI50 is commonly meant the concentration that inhibits growth by half. What is called TGI is the concentration giving total growth inhibition. A high value points to lower sensitivity of the cells. Turning to `CC1SC(c2ccc(Cl)cc2Cl)N(NC(=O)C(O)c2ccccc2)C1=O` (stereo unspecified), the GI50 in the assay with IGROV1 ovarian is 22.7 µM; with MALME-3M melanoma, 70.3 µM; in the assay with NCI-H522 lung, 41.9 µM; in the assay with PC-3 prostate it was 42.3 µM; in the assay with SF-268 CNS, 81.3 µM; in the assay on SF-295 CNS, 23.7 µM. The GI50 in the assay on SK-OV-3 ovarian was above 100 µM; in the assay on SN12C renal, 85.4 µM; in the assay with SW-620 colon, above 100 µM. The TGI in the assay on IGROV1 ovarian was 76.9 µM; with MALME-3M melanoma, above 100 µM; in the assay with NCI-H522 lung, above 100 µM; with PC-3 prostate, above 100 µM; in the assay on SF-268 CNS it was above 100 µM; in the assay on SF-295 CNS, above 100 µM. For the same compound, the TGI in the assay on SK-OV-3 ovarian, with SN12C renal and in the assay with SW-620 colon was above 100 µM in each case.

Turning to `CCC[CH2][Sn]1([CH2]CCC)[S]CC[N]1S(=O)(=O)c1ccc(C)cc1`, the GI50 was 1.7 µM in the assay with IGROV1 ovarian; 1.09 µM with MALME-3M melanoma; 0.217 µM in the assay with NCI-H522 lung; 1.19 µM in the assay with SF-268 CNS; 1.97 µM in the assay on SF-295 CNS. The TGI with IGROV1 ovarian was determined as 3.27 µM; in the assay on MALME-3M melanoma it was 2.33 µM; in the assay with NCI-H522 lung, 0.508 µM; with SF-268 CNS, 2.54 µM; in the assay with SF-295 CNS, 3.42 µM.

Consider `COc1cc2c3c(n(CCCNCCCN)c(=O)c2cc1OC)-c1cc2c(cc1C3=O)OCO2`, for which the GI50 in the assay on IGROV1 ovarian was 2.69 µM; with MALME-3M melanoma, 2.21 µM; in the assay with PC-3 prostate, 3.53 µM; in the assay with SF-268 CNS it was 1.98 µM; in the assay on SF-295 CNS it was 3.69 µM; with SK-OV-3 ovarian, 11.2 µM. Besides, the GI50 is 2.34 µM in the assay on SN12C renal and 3.29 µM in the assay on SW-620 colon. For the same compound, the TGI with IGROV1 ovarian came out at 18.9 µM; in the assay with MALME-3M melanoma, 8.66 µM; in the assay with PC-3 prostate, 14.6 µM; with SF-268 CNS, 10.5 µM; in the assay with SF-295 CNS, 16.7 µM; in the assay with SK-OV-3 ovarian, 92.9 µM. The TGI was determined as 13.3 µM in the assay with SN12C renal and 16.4 µM in the assay with SW-620 colon.

With `O=C1NC(c2ccccc2)C2(C(=O)O)CN(C3CC3)c3cc(N4CCNCC4)c(F)cc3C2N1` (stereo unspecified), the GI50 in the assay on IGROV1 ovarian, in the assay with MALME-3M melanoma, in the assay on NCI-H522 lung, in the assay with PC-3 prostate, in the assay on SF-268 CNS and with SF-295 CNS was above 100 µM throughout. The GI50 in the assay with SK-OV-3 ovarian, in the assay with SN12C renal and with SW-620 colon was above 100 µM in each case. Besides, the TGI with IGROV1 ovarian, in the assay with MALME-3M melanoma, in the assay with NCI-H522 lung, in the assay with PC-3 prostate, in the assay with SF-268 CNS and in the assay with SF-295 CNS was above 100 µM each time. Also, the TGI in the assay with SK-OV-3 ovarian, in the assay with SN12C renal and in the assay on SW-620 colon was above 100 µM each time.

Consider `O=C([O-])CC(=O)[O-].[NH-][C@@H]1CCCC[C@H]1[NH-].[Pt+4]`, for which the GI50 in the assay on IGROV1 ovarian is 33.5 µM; in the assay with MALME-3M melanoma, 6.4 µM; in the assay with NCI-H522 lung, 18.7 µM; in the assay on PC-3 prostate, 37 µM; in the assay on SF-268 CNS it was 59.1 µM; in the assay on SF-295 CNS it was 39.4 µM. In addition, the GI50 with SK-OV-3 ovarian was above 100 µM; in the assay with SN12C renal it was 15 µM; in the assay with SW-620 colon, 2.1 µM. The TGI in the assay with IGROV1 ovarian, in the assay with MALME-3M melanoma, in the assay with NCI-H522 lung, in the assay with PC-3 prostate, in the assay with SF-268 CNS and in the assay on SF-295 CNS was above 100 µM in each case. Also, the TGI in the assay with SK-OV-3 ovarian, with SN12C renal and in the assay with SW-620 colon was above 100 µM in each case.

Take `COC(=O)C1CCc2nnc(-c3ccccc3)n21` (stereo unspecified): the TGI in the assay with IGROV1 ovarian, in the assay on MALME-3M melanoma, with NCI-H522 lung, in the assay on SF-268 CNS, with SF-295 CNS and in the assay with SN12C renal was above 100 µM throughout. For the same compound, the TGI in the assay on SW-620 colon was above 100 µM.

For the compound `CC[PH+](CC)CC.[Cl][Au]`, the GI50 in the assay with IGROV1 ovarian is 2.64 µM; in the assay on MALME-3M melanoma, 1.27 µM; in the assay with NCI-H522 lung, 0.122 µM; in the assay on SF-268 CNS, 1.51 µM; in the assay with SF-295 CNS it was 4.32 µM; with SK-OV-3 ovarian it was 16.4 µM. For the same compound, the results for the GI50 with SN12C renal and with SW-620 colon were 1.82 µM and 0.567 µM, respectively. Besides, the TGI in the assay on IGROV1 ovarian stood at 7.15 µM; in the assay on MALME-3M melanoma, 2.56 µM; with NCI-H522 lung, 0.31 µM; with SF-268 CNS, 3.35 µM; in the assay with SF-295 CNS, 8.88 µM; with SK-OV-3 ovarian, 30 µM. In addition, the values for the TGI in the assay on SN12C renal and with SW-620 colon were 3.55 µM and 1.98 µM, respectively.

As to `N#CC1=C(N)NC(=O)NC12Nc1ccccc1N2`, the GI50 in the assay on IGROV1 ovarian, with MALME-3M melanoma, in the assay with NCI-H522 lung, with PC-3 prostate, in the assay with SF-268 CNS and with SF-295 CNS was above 100 µM in each case. Further, the GI50 in the assay on SK-OV-3 ovarian, in the assay on SN12C renal and in the assay on SW-620 colon was above 100 µM in each case. The concentration for total growth inhibition (TGI) in the assay on IGROV1 ovarian, with MALME-3M melanoma, in the assay with NCI-H522 lung, with PC-3 prostate, in the assay on SF-268 CNS and in the assay with SF-295 CNS was above 100 µM in each case. For the same compound, the TGI with SK-OV-3 ovarian, in the assay with SN12C renal and in the assay on SW-620 colon was above 100 µM each time.

With `CC1=CCCC2C(C=O)(C1)CC(C)C2(CO)CC/C(=C/CO)CO` (stereo unspecified), the TGI in the assay with IGROV1 ovarian, in the assay with MALME-3M melanoma, in the assay with NCI-H522 lung, in the assay with SF-295 CNS, in the assay on SK-OV-3 ovarian and in the assay on SN12C renal was above 100 µM throughout. Besides, in the assay with SW-620 colon, the TGI was above 100 µM.

As to `CCn1c(-c2nonc2N)nc2c(N3CCCC3)nccc21`, the GI50 was 12 µM with IGROV1 ovarian; above 25 µM in the assay with MALME-3M melanoma; 10.9 µM with NCI-H522 lung; 14.4 µM in the assay with PC-3 prostate; 13.3 µM in the assay with SF-268 CNS; 9.27 µM in the assay on SF-295 CNS. Further, the GI50 in the assay with SK-OV-3 ovarian is above 24 µM; in the assay with SN12C renal, 15 µM; in the assay on SW-620 colon, 8.07 µM. Also, the TGI with IGROV1 ovarian, in the assay on MALME-3M melanoma, with NCI-H522 lung, in the assay on PC-3 prostate, in the assay with SF-268 CNS and in the assay on SF-295 CNS was above 25 µM in each case. For the same compound, the TGI in the assay with SK-OV-3 ovarian, in the assay with SN12C renal and with SW-620 colon was above 25 µM in each case.
